According to PMC7180456, “Multitarget Anticancer Agents Based on Histone Deacetylase and Protein Kinase CK2 Inhibitors” (Molecules, 2020):

Key:
CK2 = settings: Figure 1; read-out: IC50 of representative CK2 inhibitors; cited from earlier work
human recombinant HDAC1 = molecular target: T1, human recombinant HDAC1 (Homo sapiens, UniProt Q13547); test: HDAC1 inhibition, fluorometric method (Enzo Fluorometric Drug Discovery Assay Kit); format: biochemical; settings: read-out: Inhibitory activity IC50 on HDAC1
T1 construct: purchased Enzo Life Sciences, Inc
Procedure: The inhibitory activities of the synthesized compounds were determined against CK2 and HDAC1 and the IC50 values are collected in Table 1. The activity towards human recombinant HDAC1 was tested using a fluorometric method. CK2 inhibitory activity was determined by a radiometric method, using a short peptide ([…]) as a substrate.
(§1) 15 µL of HDAC1 (0.4 µg/well) or HDAC6 (0.5 µg/well) were incubated at 37 °C for 30 minutes with 10 µL of inhibitor diluted in 5% DMSO and 25 µL of fluorogenic substrate (0.05 µL/well of 5 mM solution). Reactions were stopped with the developer and trichostatin A, diluted in buffer without BSA, and the plate was incubated at 30 °C for 45 min, followed by measuring the fluorescence (Ex. 360 nm, Em. 450 nm, Fluoroskan, Thermo Scientific).

human recombinant CK2α = molecular target: T2, human recombinant CK2α (Homo sapiens, UniProt P68400); test: CK2 inhibition, radiometric method with peptide substrate […]; format: biochemical; settings: for fold less active in CK2 (than in HDAC1): CK2 IC50 versus HDAC1 IC50; for IC50: radiometric method, 20 µM ATP, read-out: Inhibitory activity IC50 on CK2
T2 construct: GST; made in house; host or cells: bacteria
Procedure: The activity towards human recombinant HDAC1 was tested using a fluorometric method. CK2 inhibitory activity was determined by a radiometric method, using a short peptide ([…]) as a substrate.
Recombinant human protein kinase GST-CK2 was produced in bacteria and purified as described elsewhere. […] The reaction buffer contained 20 µM [γ-32P] ATP (specific radioactivity 300–1000 cpm/pmol), 15 mM Mg^2+, 20 mM Tris–HCl pH 7.5, and 6 mM 2-mercaptoethanol. 10 µL of the assay mixture was spotted onto a square (1 cm/1 cm) of Whatman P81 paper and allowed to dry. Each square was immersed in cold 0.5% phosphoric acid, and washed three times during 10 min, allowed to dry and transferred into a vessel containing Opti-Phase liquid (scintillation solution) and radioactivity was quantified using a scintillation counter (MicroBeta, Perkin Elmer) by Cerenkov counting. All experiments were performed in triplicate. IC50 values were calculated using GraphPad Prism (version 4.0) software.

HDAC6 = molecular target: T3, HDAC6 (Homo sapiens, UniProt Q9UBN7); test: HDAC6 inhibition, fluorometric method (Enzo Fluorometric Drug Discovery Assay Kit); format: biochemical; settings: read-out: Inhibitory activity IC50 on HDAC6
T3 construct: purchased Enzo Life Sciences, Inc
T3 sequence (Q9UBN7 1-1215): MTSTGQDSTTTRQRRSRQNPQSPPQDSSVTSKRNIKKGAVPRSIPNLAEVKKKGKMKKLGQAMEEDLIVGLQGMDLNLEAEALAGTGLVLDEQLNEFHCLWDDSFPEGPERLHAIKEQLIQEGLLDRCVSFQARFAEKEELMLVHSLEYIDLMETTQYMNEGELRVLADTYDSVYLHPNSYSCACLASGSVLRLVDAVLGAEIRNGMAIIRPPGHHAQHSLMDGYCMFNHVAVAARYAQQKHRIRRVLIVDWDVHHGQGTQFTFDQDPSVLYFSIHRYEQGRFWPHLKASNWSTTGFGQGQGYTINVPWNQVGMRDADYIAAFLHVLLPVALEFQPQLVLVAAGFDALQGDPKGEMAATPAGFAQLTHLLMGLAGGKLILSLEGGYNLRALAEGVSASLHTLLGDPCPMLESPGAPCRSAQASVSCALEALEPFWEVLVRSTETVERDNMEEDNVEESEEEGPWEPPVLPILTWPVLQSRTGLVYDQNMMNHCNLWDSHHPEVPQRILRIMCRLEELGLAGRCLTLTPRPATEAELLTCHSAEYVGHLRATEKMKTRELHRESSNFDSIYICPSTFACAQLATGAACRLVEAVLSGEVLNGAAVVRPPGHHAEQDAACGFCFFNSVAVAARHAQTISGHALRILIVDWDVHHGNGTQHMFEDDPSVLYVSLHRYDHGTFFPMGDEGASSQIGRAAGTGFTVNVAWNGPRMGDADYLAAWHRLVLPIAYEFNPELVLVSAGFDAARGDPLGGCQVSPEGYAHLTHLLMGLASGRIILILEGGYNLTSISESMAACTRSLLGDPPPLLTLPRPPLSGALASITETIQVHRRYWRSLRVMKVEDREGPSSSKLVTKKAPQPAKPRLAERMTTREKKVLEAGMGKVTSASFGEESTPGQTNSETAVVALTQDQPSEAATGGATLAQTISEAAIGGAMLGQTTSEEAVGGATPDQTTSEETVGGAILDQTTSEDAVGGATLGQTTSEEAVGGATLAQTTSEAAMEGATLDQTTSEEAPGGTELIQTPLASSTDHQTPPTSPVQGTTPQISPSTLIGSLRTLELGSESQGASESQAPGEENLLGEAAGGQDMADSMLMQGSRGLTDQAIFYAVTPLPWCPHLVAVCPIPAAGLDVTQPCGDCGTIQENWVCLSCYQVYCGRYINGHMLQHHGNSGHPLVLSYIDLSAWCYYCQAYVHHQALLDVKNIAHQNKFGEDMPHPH
Procedure: For this reason, we analyzed the activity of 15 and 19, together with other compounds from the alkyl and triazole series in HDAC6, tested using a fluorometric method (Table 1).
as §1

T1 sequence (Q13547 whole entry): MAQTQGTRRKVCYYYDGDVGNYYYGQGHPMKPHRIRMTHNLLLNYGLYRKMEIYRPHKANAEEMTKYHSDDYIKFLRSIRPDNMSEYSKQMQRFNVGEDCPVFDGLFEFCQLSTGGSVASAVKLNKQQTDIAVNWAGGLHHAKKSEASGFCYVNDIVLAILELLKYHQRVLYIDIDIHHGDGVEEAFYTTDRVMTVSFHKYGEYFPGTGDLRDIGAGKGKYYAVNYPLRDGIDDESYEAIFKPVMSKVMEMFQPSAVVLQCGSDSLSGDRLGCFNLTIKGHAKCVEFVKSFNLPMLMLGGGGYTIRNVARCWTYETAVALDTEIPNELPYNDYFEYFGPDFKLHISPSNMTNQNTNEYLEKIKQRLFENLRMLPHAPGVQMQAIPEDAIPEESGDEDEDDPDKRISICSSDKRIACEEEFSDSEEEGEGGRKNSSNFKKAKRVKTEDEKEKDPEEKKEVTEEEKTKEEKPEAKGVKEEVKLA
T2 sequence (P68400 whole entry): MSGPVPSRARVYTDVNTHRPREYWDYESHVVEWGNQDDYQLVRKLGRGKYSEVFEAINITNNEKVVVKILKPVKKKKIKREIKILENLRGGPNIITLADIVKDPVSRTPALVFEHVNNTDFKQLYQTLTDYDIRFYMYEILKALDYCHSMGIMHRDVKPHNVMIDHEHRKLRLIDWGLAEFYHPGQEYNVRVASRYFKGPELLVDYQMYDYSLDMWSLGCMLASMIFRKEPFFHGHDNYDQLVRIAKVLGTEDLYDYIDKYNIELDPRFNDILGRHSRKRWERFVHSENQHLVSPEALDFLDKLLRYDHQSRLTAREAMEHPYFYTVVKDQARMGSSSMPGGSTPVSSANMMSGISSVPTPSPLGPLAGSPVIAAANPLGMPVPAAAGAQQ

| Structure (SMILES) | IC50 (human recombinant HDAC1) [µM] | fold less active in CK2 (than in HDAC1) (human recombinant CK2α) [fold] | IC50 (human recombinant CK2α) [µM] | IC50 (HDAC6) [µM] | IC50 (CK2) [µM] |
| --- | --- | --- | --- | --- | --- |
| CN(C)c1nc2c(Br)c(Br)c(Br)c(Br)c2n1Cc1cn(CCCCC(=O)NO)nn1 [Compound 7b, N-Hydroxy-5-(4-((4,5,6,7-tetrabromo-2-(dimethylamino)-1H-benzo[d]imidazol-1-yl)methyl)-1H-1,2,3-triazol-1-yl)pentanamide] | 2.25 | 22 | 50.1 | 2.41 | – |
| CN(C)c1nc2c(Br)c(Br)c(Br)c(Br)c2n1CCc1cn(CCCC(=O)NO)nn1 [Compound 7d, N-Hydroxy-4-(4-(2-(4,5,6,7-tetrabromo-2-(dimethylamino)-1H-benzo[d]imidazol-1-yl)ethyl)-1H-1,2,3-triazol-1-yl)butanamide] | 10.2 | – | 53.8 | – | – |

The next lines start with results.

| IC50 (human recombinant HDAC1) [µM] | fold less active in CK2 (than in HDAC1) (human recombinant CK2α) [fold] | IC50 (human recombinant CK2α) [µM] | IC50 (HDAC6) [µM] | Structure (SMILES) | IC50 (CK2) [µM] |
| --- | --- | --- | --- | --- | --- |
| 1.43 | 60 | 85.1 | – | CN(C)c1nc2c(Br)c(Br)c(Br)c(Br)c2n1Cc1cn(CCCC(=O)NO)nn1 [Compound 7a, N-Hydroxy-4-(4-((4,5,6,7-tetrabromo-2-(dimethylamino)-1H-benzo[d]imidazol-1-yl)methyl)-1H-1,2,3-triazol-1-yl)butanamide] | – |
| 62 | – | 34.2 | – | CN(C)c1nc2c(Br)c(Br)c(Br)c(Br)c2n1CCCCC(=O)NO [Compound 11a, N-Hydroxy-5-(4,5,6,7-tetrabromo-2-(dimethylamino)-1H-benzo[d]imidazol-1-yl)pentanamide] | – |
